Target: T1, kinase domain protein of RC kinase (Homo sapiens, UniProt Q56UN5)
T1 sequence (Q56UN5 1061-1324 limits assumed): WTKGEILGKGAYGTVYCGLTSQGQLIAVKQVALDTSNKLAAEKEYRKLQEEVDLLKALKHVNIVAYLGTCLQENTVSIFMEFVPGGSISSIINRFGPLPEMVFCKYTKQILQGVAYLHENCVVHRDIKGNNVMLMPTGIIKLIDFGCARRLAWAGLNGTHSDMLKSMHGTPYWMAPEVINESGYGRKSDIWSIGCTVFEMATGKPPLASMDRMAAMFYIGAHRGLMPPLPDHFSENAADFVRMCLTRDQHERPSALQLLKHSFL
Test: Enzymatic assay for kinase inhibitory activity (Crebtide substrate, LANCE readout), kinase domain protein
Type: biochemical
Details: test compound 1 μM, ATP 1 μM, Crebtide 50 nM
Procedure: Solutions of a test compound, Crebtide (a substrate), a kinase, and ATP were prepared using 1×MAPK Buffer (50 mM HEPES, 1 mM EGTA, […], 10 mM MgCl2, 2 mM DTT, and 0.01% Tween 20).
To each well, the test compound (1 μL) was first added (in duplicate) to reach a final concentration of 1 μM or 1×IC50 of the compound. The kinase (5 μL) was then added to each well to reach a final concentration of […] for the kinase domain or […] for the full-length domain. Each plate included a positive and negative controls in duplicate wells. Crebtide (2.5 μL) was then added to each well in duplicate to reach a final concentration of 50 nM. If the full-length kinase was used, the plates were incubated for 45 min at room temperature before proceeding further. ATP (2.5 μL) was added to each well to reach a final concentration of 1 μM for the kinase domain and 3 μM for the full-length.
After the addition of ATP, the plates were incubated for 45 min at room temperature. During the incubation, an EDTA solution (40 mM) and anti-Crebtide ([…]) were prepared. Additionally, a detection buffer stock solution was diluted ten fold before use.
After the incubation, the anti-Crebtide (5 μL) and EDTA (5 μL) were added to each well to reach their final concentrations of […] and 10 mM, respectively. The plates were allowed to develop at room temperature for 45 min. The plates were then read at 665 nm and 615 nm using Perkin Elmer Lance machine.
The biological results of inhibition of the kinase domain protein of RC kinase are summarized in Tables 2 and 3, wherein A represents at least 50% inhibition of the RC kinase activity at 1 μM; B represents no greater than 50% but at least 20% inhibition of the RC kinase activity at 1 μM; C represents no greater than 20% but at least 5% inhibition of the RC kinase activity at 1 μM; and D represents no greater than 5% inhibition of the RC kinase activity at 1 μM.

Work on `N#Cc1c(Nc2cccc(Cl)c2)n[nH]c1NCc1ccc(Oc2nccc(C(F)(F)F)n2)cc1` [Compound C1, 3-((3-chlorophenyl)amino)-5-((4-((4-(trifluoromethyl)pyrimidin-2-yl)oxy)benzyl)amino)-1H-pyrazole-4-carbonitrile] yielded an inhibition at 1 µM of 5 to 20%.
Work on `N#Cc1c(Nc2cccc(Cl)c2)n[nH]c1NCc1cccn1S(=O)(=O)c1ccccc1` [Compound C4] yielded an inhibition at 1 µM of 5 to 20%.
For `N#Cc1c(Nc2cccc(Cl)c2)n[nH]c1NCc1ccc(S(F)(F)(F)(F)F)cc1` [Compound C5, 3-((3-chlorophenyl)amino)-5-((4-pentafluorothiobenzyl)amino)-1H-pyrazole-4-carbonitrile], the inhibition at 1 µM was 5 to 20%.
`N#Cc1c(Nc2cccc(Cl)c2)n[nH]c1NCc1ccc(OCc2ccc(F)cc2)cc1` [Compound C6] gave an inhibition at 1 µM of 20 to 50%.
For `N#Cc1c(Nc2cccc(Cl)c2)n[nH]c1NCc1ccc(-n2cnc3ccccc32)cc1` [Compound C7], the inhibition at 1 µM was 5 to 20%.
In the case of `N#Cc1c(Nc2cccc(Cl)c2)n[nH]c1NCc1c[nH]c2c(F)c(F)c(F)c(F)c12` [Compound C8], the inhibition at 1 µM is reported as 5 to 20%.
For `Cn1nc(C(F)(F)F)c(CNc2[nH]nc(Nc3cccc(Cl)c3)c2C#N)c1Cl` [Compound C9], the inhibition at 1 µM was ≤ 5%.
For `N#Cc1c(Nc2cccc(Cl)c2)n[nH]c1NCc1ccc(OC(F)(F)F)c(F)c1` [Compound C10], the inhibition at 1 µM was ≤ 5%.
With `N#Cc1c(Nc2cccc(Cl)c2)n[nH]c1NCc1nc(-c2ccccc2)[nH]c1Cl` [Compound C11] the inhibition at 1 µM was ≤ 5%.
With `N#Cc1c(Nc2cccc(Cl)c2)n[nH]c1NCc1ccc(-c2ccc(Cl)cc2)o1` [Compound C12] the inhibition at 1 µM was ≤ 5%.
For `CN1CCN(c2ccc(CNc3[nH]nc(Nc4cccc(Cl)c4)c3C#N)cc2)CC1` [Compound C13], the inhibition at 1 µM was ≤ 5%.
For `COc1ccc(C(F)(F)F)cc1CNc1[nH]nc(Nc2cccc(Cl)c2)c1C#N` [Compound C14], the inhibition at 1 µM was ≤ 5%.
For `N#Cc1c(Nc2cccc(Cl)c2)n[nH]c1NCc1ccc(N2CCOCC2)nc1` [Compound C15], the inhibition at 1 µM was ≤ 5%.
In the case of `N#Cc1c(Nc2cccc(Cl)c2)n[nH]c1NCc1ccc(-c2ccccn2)s1` [Compound C16], the inhibition at 1 µM is reported as ≤ 5%.
For `N#Cc1c(Nc2cccc(Cl)c2)n[nH]c1NCc1ccc(OC(F)F)c(O)c1` [Compound C17, 3-((3-chlorophenyl)amino)-5-((4-(difluoromethoxy)-3-hydroxybenzyl)amino)-1H-pyrazole-4-carbonitrile], the inhibition at 1 µM was ≤ 5%.
`N#Cc1c(Nc2cccc(Cl)c2)n[nH]c1NCc1ccc(-n2cncn2)cc1` [Compound C20] showed an inhibition at 1 µM of 5 to 20%.
`N#Cc1c(Nc2cccc(Cl)c2)n[nH]c1NCc1ccc(OCCO)cc1` [Compound C21, 3-((3-chlorophenyl)amino)-5-((4-(2-hydroxyethoxy)benzyl)amino)-1H-pyrazole-4-carbonitrile] gave an inhibition at 1 µM of 5 to 20%.
For `COc1ccc(CNc2[nH]nc(Nc3cccc(Cl)c3)c2C#N)c(C)c1C` [Compound C22], the inhibition at 1 µM was ≤ 5%.
With `N#Cc1c(Nc2cccc(Cl)c2)n[nH]c1NCc1c(O)cccc1Cl` [Compound C25] the inhibition at 1 µM was 20 to 50%.
In the case of `N#Cc1c(Nc2cccc(Cl)c2)n[nH]c1NCc1cccnc1Cl` [Compound C28, 3-((3-chlorophenyl)amino)-5-(((2-chloropyridin-3-yl)methyl)amino)-1H-pyrazole-4-carbonitrile], the inhibition at 1 µM is reported as ≤ 5%.
For `Cc1cc(F)ccc1CNc1[nH]nc(Nc2cccc(Cl)c2)c1C#N` [Compound C29, 3-((3-chlorophenyl)amino)-5-((4-fluoro-2-methylbenzyl)amino)-1H-pyrazole-4-carbonitrile], the inhibition at 1 µM was 5 to 20%.
`Cc1ccc(CNc2[nH]nc(Nc3cccc(Cl)c3)c2C#N)c(O)c1` [Compound C30] gave an inhibition at 1 µM of 5 to 20%.
With `NC(=O)c1c(Nc2cccc(Cl)c2)n[nH]c1NCc1ccc(Cl)nc1` [Compound D6] the inhibition at 1 µM was 5 to 20%.
With `Cc1cc(CNc2[nH]nc(Nc3cccc(Cl)c3)c2C(N)=O)cc(C)c1O` [Compound D8] the inhibition at 1 µM was 20 to 50%.

— US8916555B2, “3,5-diaminopyrazole kinase inhibitors” (Axikin Pharmaceuticals, Inc., priority 2012, dated 2014)
